ChEMBL document CHEMBL1909046, “DrugMatrix in vitro pharmacology data”

How the values were obtained:
[1] = molecular target: Beta-2 adrenergic receptor (Homo sapiens, UniProt P07550); assay: DRUGMATRIX: Adrenergic beta2 radioligand binding (ligand: [3H] CGP-12177); format: cell membranes, Membrane; details: cho; Not Active = under 50% inhibition at 10 µM
[2] = DRUGMATRIX: Tumor Necrosis Factor (TNF), Non-Selective radioligand binding (ligand: [125I] TNF-alpha); format: cell membranes, Membrane; details: u-937; Not Active = under 50% inhibition at 10 µM
[3] = molecular target: T1, Vasoactive intestinal polypeptide receptor 1 (Homo sapiens, UniProt P32241); format: cell membranes, Membrane; details: ht-29; further: in other assays of this panel Not Active means under 50% inhibition at 10 µM
T1 sequence (P32241 whole entry): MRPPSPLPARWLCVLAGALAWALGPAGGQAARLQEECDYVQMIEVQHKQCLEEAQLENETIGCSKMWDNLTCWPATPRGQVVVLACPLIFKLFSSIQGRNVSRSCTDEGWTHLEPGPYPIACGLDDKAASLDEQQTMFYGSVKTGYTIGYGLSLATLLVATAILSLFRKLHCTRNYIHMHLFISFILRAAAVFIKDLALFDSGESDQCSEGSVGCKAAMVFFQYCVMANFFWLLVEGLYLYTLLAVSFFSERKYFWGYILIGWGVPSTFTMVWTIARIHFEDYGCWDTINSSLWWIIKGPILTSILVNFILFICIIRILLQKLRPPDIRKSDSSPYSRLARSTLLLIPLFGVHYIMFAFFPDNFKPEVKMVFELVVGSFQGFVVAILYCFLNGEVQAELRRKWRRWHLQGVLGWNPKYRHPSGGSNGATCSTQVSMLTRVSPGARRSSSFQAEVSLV

[4] = molecular target: T2, Cholecystokinin receptor type A (Homo sapiens, UniProt P32238); format: cell membranes, Membrane; details: 1321-n1; further: in other assays of this panel Not Active means under 50% inhibition at 10 µM
T2 sequence (P32238 whole entry): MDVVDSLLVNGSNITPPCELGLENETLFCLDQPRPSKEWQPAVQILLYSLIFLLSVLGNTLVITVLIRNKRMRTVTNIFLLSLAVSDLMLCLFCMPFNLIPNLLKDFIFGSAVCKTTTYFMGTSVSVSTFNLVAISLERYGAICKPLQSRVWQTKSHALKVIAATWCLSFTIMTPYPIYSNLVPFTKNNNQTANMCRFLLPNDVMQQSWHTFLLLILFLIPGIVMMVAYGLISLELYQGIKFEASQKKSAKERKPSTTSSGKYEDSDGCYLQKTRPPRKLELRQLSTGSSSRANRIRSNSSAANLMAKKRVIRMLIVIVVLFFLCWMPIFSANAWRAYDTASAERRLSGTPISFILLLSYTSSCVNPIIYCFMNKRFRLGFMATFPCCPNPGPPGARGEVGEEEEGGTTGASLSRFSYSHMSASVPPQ

[5] = DRUGMATRIX: GABAA, Muscimol, Central radioligand binding (ligand: [3H] Muscimol); format: cell membranes, Rattus norvegicus, Wistar, Brain, Membrane; details: Not Active = under 50% inhibition at 10 µM
[6] = molecular target: Melanocortin receptor 5 (Homo sapiens, UniProt P33032); format: cell membranes, HEK293, Membrane; details: hek293; further: in other assays of this panel Not Active means under 50% inhibition at 10 µM
[7] = molecular target: T3, Amine oxidase [flavin-containing] A (Homo sapiens, UniProt P21397); assay: DRUGMATRIX: Monoamine Oxidase MAO-A enzyme inhibition (substrate: Kynuramine); design: species or system BTI-TN-5B1-4; details: bti-tn-5b1-4; Not Active = under 50% inhibition at 10 µM
T3 sequence (P21397 whole entry): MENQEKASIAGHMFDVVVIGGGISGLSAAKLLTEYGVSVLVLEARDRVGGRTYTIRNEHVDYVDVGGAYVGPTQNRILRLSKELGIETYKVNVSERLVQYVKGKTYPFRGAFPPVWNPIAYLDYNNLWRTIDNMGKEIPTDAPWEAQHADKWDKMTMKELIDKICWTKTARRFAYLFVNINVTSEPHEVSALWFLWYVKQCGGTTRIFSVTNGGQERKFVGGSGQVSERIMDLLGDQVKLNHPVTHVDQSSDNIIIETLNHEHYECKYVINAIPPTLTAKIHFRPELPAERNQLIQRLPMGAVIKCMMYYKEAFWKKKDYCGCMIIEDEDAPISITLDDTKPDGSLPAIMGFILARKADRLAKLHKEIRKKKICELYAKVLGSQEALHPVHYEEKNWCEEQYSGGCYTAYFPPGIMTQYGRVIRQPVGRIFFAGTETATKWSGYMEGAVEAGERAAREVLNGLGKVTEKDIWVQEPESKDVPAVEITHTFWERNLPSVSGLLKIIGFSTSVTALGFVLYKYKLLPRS

[8] = molecular target: T4, Neuropeptide Y receptor type 1 (Homo sapiens, UniProt P25929); format: cell membranes, Membrane; details: sk-n-mc; further: in other assays of this panel Not Active means under 50% inhibition at 10 µM
T4 sequence (P25929 whole entry): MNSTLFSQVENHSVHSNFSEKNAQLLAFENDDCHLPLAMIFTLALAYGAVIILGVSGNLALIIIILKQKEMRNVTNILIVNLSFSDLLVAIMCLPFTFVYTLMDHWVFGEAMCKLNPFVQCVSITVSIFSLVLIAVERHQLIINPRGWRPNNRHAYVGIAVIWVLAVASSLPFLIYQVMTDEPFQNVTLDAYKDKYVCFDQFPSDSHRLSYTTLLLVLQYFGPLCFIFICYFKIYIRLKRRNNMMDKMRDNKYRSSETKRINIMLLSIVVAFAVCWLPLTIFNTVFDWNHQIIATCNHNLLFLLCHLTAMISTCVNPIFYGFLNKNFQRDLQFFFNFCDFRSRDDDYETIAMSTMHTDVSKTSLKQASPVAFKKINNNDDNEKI

[9] = molecular target: T5, Progesterone receptor (Bos taurus, UniProt Q690N0); assay: DRUGMATRIX: Progesterone radioligand binding (ligand: [3H] R-5020); format: tissue-based, Uterus; details: Not Active = under 50% inhibition at 10 µM
T5 sequence (Q690N0 whole entry): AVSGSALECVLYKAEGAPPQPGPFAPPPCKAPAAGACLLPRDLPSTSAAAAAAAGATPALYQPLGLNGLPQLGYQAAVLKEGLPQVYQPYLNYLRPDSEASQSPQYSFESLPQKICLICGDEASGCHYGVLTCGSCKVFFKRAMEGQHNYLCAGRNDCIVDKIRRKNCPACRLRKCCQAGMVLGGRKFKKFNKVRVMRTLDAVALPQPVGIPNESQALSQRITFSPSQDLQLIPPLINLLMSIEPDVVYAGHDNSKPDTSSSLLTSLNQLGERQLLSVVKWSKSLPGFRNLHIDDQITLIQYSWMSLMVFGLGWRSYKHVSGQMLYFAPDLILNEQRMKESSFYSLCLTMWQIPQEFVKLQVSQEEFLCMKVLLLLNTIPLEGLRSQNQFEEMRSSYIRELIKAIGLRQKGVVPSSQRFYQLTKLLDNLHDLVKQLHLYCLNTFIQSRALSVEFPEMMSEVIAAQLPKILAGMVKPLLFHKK

[10] = molecular target: Protein phosphatase 3 catalytic subunit alpha (Homo sapiens, UniProt Q08209); design: species or system Escherichia coli
[11] = molecular target: Cytochrome P450 2C9 (Homo sapiens, UniProt P11712); details: bti-tn-5b1-4; further: in other assays of this panel Not Active means under 50% inhibition at 10 µM
Chain of Cytochrome P450 2C9 (P11712 whole entry): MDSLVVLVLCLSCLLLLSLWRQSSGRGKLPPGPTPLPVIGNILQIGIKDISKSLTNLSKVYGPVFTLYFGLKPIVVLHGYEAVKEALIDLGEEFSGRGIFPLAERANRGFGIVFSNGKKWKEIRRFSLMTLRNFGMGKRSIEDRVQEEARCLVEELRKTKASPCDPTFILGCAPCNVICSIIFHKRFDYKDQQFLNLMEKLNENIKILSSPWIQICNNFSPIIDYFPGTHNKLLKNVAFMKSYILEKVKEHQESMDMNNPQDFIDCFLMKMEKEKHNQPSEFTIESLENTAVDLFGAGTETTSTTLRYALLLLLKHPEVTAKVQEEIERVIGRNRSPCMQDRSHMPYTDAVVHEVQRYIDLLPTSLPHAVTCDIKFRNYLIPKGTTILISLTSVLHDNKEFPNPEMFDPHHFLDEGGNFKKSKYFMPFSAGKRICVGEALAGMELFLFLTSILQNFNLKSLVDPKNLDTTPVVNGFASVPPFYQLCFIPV

Chain of Melanocortin receptor 5 (P33032 whole entry): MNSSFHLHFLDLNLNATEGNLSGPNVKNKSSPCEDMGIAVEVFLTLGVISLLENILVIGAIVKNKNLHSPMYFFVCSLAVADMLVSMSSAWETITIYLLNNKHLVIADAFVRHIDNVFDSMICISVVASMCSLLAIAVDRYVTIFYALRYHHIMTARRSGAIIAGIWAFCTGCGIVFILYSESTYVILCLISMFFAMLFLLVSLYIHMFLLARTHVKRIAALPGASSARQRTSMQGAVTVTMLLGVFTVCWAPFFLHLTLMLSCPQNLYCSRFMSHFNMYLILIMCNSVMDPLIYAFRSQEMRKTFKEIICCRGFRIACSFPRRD

Molecule: Cn1cnc([N+](=O)[O-])c1Sc1ncnc2nc[nH]c12 [AZATHIOPRINE]
- IC50 [1]: Not Active
- IC50 [2]: Not Active
- Ki [2]: Not Active
- IC50 [3]: Not Active
- IC50 [4]: Not Active
- IC50 [5]: Not Active
- Ki [5]: Not Active
- IC50 [6]: Not Active
- IC50 [7]: Not Active
- IC50 [8]: Not Active
- IC50 [9]: Not Active
- IC50 [10]: Not Active
- IC50 [11]: Not Active
- Ki [11]: Not Active

Molecule: COC1=CC(=O)C[C@@H](C)[C@]12Oc1c(Cl)c(OC)cc(OC)c1C2=O [GRISEOFULVIN]
- IC50 [1]: Not Active
- IC50 [2]: Not Active
- Ki [2]: Not Active
- IC50 [3]: Not Active
- IC50 [4]: Not Active
- IC50 [5]: Not Active
- Ki [5]: Not Active
- IC50 [6]: Not Active
- IC50 [7]: Not Active
- IC50 [8]: Not Active
- IC50 [9]: Not Active
- IC50 [10]: Not Active
- IC50 [11]: Not Active
- Ki [11]: Not Active

Molecule: O=C1CN=C(c2ccccc2)c2cc([N+](=O)[O-])ccc2N1 [NITRAZEPAM]
- IC50 [1]: Not Active
- IC50 [2]: Not Active
- Ki [2]: Not Active
- IC50 [3]: Not Active
- IC50 [4]: Not Active
- IC50 [5]: Not Active
- Ki [5]: Not Active
- IC50 [6]: Not Active
- IC50 [7]: Not Active
- IC50 [8]: Not Active
- IC50 [9]: Not Active
- IC50 [10]: Not Active
- IC50 [11]: Not Active
- Ki [11]: Not Active

Molecule: CISPLATIN
- IC50 [1]: Not Active
- Ki [1]: Not Active
- IC50 [2]: Not Active
- Ki [2]: Not Active
- IC50 [3]: Not Active
- Ki [3]: Not Active
- IC50 [4]: Not Active
- Ki [4]: Not Active
- IC50 [5]: Not Active
- Ki [5]: Not Active
- IC50 ([6]; read-out: IC50): 6.43 µM
- Ki ([6]; read-out: Ki): 6.04 µM
- IC50 [7]: Not Active
- Ki [7]: Not Active
- IC50 [8]: Not Active
- Ki [8]: Not Active
- IC50 [9]: Not Active
- Ki [9]: Not Active
- IC50 [10]: Not Active
- Ki [10]: Not Active
- IC50 [11]: Not Active
- Ki [11]: Not Active

Molecule: GOLD SODIUM THIOMALATE
- IC50 [1]: Not Active
- Ki [1]: Not Active
- IC50 [2]: Not Active
- Ki [2]: Not Active
- IC50 [3]: Not Active
- Ki [3]: Not Active
- IC50 [4]: Not Active
- Ki [4]: Not Active
- IC50 [5]: Not Active
- Ki [5]: Not Active
- IC50 [6]: Not Active
- Ki [6]: Not Active
- IC50 [7]: Not Active
- Ki [7]: Not Active
- IC50 [8]: Not Active
- Ki [8]: Not Active
- IC50 [9]: Not Active
- Ki [9]: Not Active
- IC50 [10]: Not Active
- Ki [10]: Not Active
- IC50 [11]: Not Active
- Ki [11]: Not Active

Molecule: CCc1cccc2c3c([nH]c12)C(CC)(CC(=O)O)OCC3 (stereo not given) [ETODOLAC]
- IC50 [1]: Not Active
- IC50 [2]: Not Active
- Ki [2]: Not Active
- IC50 [3]: Not Active
- IC50 [4]: Not Active
- IC50 [5]: Not Active
- Ki [5]: Not Active
- IC50 [6]: Not Active
- IC50 [7]: Not Active
- IC50 [8]: Not Active
- IC50 [9]: Not Active
- IC50 [10]: Not Active
- IC50 [11]: Not Active
- Ki [11]: Not Active

Molecule: CN(C)[C@@H]1C(O)=C(C(N)=O)C(=O)[C@@]2(O)C(O)=C3C(=O)c4c(O)cccc4[C@@](C)(O)[C@H]3[C@H](O)[C@@H]12 [OXYTETRACYCLINE]
- IC50 [1]: Not Active
- IC50 [2]: Not Active
- Ki [2]: Not Active
- IC50 [3]: Not Active
- IC50 [4]: Not Active
- IC50 [5]: Not Active
- Ki [5]: Not Active
- IC50 [6]: Not Active
- IC50 [7]: Not Active
- IC50 [8]: Not Active
- IC50 [9]: Not Active
- IC50 [10]: Not Active
- IC50 [11]: Not Active
- Ki [11]: Not Active

Molecule: CN(C)CCCC1(c2ccc(F)cc2)OCc2cc(C#N)ccc21 (stereo not given) [CITALOPRAM]
- IC50 [1]: Not Active
- IC50 [2]: Not Active
- Ki [2]: Not Active
- IC50 [3]: Not Active
- IC50 [4]: Not Active
- IC50 [5]: Not Active
- Ki [5]: Not Active
- IC50 [6]: Not Active
- IC50 [7]: Not Active
- IC50 [8]: Not Active
- IC50 [9]: Not Active
- IC50 [10]: Not Active
- IC50 [11]: Not Active
- Ki [11]: Not Active

Molecule: CN1CCC[C@H]1c1cccnc1 [NICOTINE]
- IC50 [1]: Not Active
- IC50 [2]: Not Active
- Ki [2]: Not Active
- IC50 [3]: Not Active
- IC50 [4]: Not Active
- IC50 [5]: Not Active
- Ki [5]: Not Active
- IC50 [6]: Not Active
- IC50 [7]: Not Active
- IC50 [8]: Not Active
- IC50 [9]: Not Active
- IC50 [10]: Not Active
